Measurements published in ChEMBL document CHEMBL5375999, “Discovery of a Dual Tubulin and Neuropilin-1 (NRP1) Inhibitor with Potent In Vivo Anti-Tumor Activity via Pharmacophore-based Docking Screening, Structure Optimization, and Biological Evaluation” (J Med Chem, 2023).
The source made the active and inactive calls. The rule behind the calls is not given here.

How the values were obtained:
[1] = biological target: Cyclin-dependent kinase 2 (Homo sapiens, UniProt P24941); assay: Inhibition of CDK2 (unknown origin)
Tubulin = assay: Inhibition of tubulin polymerization (unknown origin) by spectrophotometric analysis; format: protein-complex assay, Homo sapiens
[2] = biological target: Dual specificity protein kinase TTK (Homo sapiens, UniProt P33981); assay: Inhibition of TTK (unknown origin)
Tubulin (Homo sapiens) [3] = biological target: T1, Tubulin (Homo sapiens) (UniProt P68371+Q9H4B7+P0DPH7+P68366+Q13509+Q71U36+P04350+Q3ZCM7+P07437+P68363+Q9BQE3+Q6PEY2+Q13885+Q9BVA1+Q9BUF5); assay: Inhibition of tubulin polymerization in human PC-3 cells assessed as increase in nuclear disruption incubated for 48 hrs by immunofluorescence assay; format: cell-based; settings: dose 0.1-12.5 µM
[4] = biological target: Vascular endothelial growth factor receptor 3 (Homo sapiens, UniProt P35916); assay: Inhibition of VEGFR3 (unknown origin)
PC-3 [5] = assay: Cytotoxicity against human PC-3 cells assessed as inhibition of cell viability incubated for 48 hrs by MTT assay; format: functional, cell-based; settings: PC-3, 48 h
PC-3 [6] = assay: Induction of cell cycle arrest in human PC-3 cells assessed as G0/G1 phase cells at 12.5 uM by flow cytometry analysis (reference value: 94.76%); format: functional
[7] = biological target: Cyclin-dependent kinase 4 (Homo sapiens, UniProt P11802); assay: Inhibition of CDK4 (unknown origin)
PC-3 [8] = assay: Induction of cell cycle arrest in human PC-3 cells assessed as accumulation of cells at G2/M phase at 2.5 uM by flow cytometry analysis (reference value: 3.24%); format: functional
[9] = biological target: Vascular endothelial growth factor A, long form (Homo sapiens, UniProt P15692); assay: Inhibition of VEGF (unknown origin)
[10] = biological target: RAC-beta serine/threonine-protein kinase (Homo sapiens, UniProt P31751); assay: Inhibition of AKT2 (unknown origin)
Neuropilin-2 = Neuropilin-2 (Homo sapiens, UniProt O60462); assay: Inhibition of NRP2 (unknown origin)
PC-3 [11] = assay: Induction of cell cycle arrest in human PC-3 cells assessed as accumulation of cells at G2/M phase at 12.5 uM by flow cytometry analysis (reference value: 3.24%); format: functional
PC-3 [12] = assay: Induction of apoptosis in human PC-3 cells assessed as viable cells at 2.5 uM by Annexin-V FITC staining based flow cytometry analysis (reference value: 96.8%); format: functional; settings: read-out: Activity
[13] = biological target: Hepatocyte growth factor receptor (Homo sapiens, UniProt P08581); assay: Inhibition of MET (unknown origin)
PC-3 [14] = assay: Antitumor activity against human PC-3 cells xenografted in BALB/c nude mouse assessed as tumor disappearance at 10 mg/kg, ip administered every 4 days for 20 days; format: functional, organism-based; settings: time 20.0 day
PC-3 [15] = assay: Antiangiogenesis activity in human PC-3 cells assessed as appearance of scattered cells at 0.1 to 12.5 uM incubated for 8 to 15 hrs by matrigel based inverted microscopic analysis; format: functional, cell-based; settings: dose 0.1-12.5 µM, time 8-15 hrs
[16] = biological target: Serine/threonine-protein kinase B-raf (Homo sapiens, UniProt P15056); assay: Inhibition of BRAF (unknown origin)
PC-3 [17] = assay: Induction of apoptosis in human PC-3 cells assessed as viable cells at 0.1 uM by Annexin-V FITC staining based flow cytometry analysis (reference value: 96.8%); format: functional; settings: read-out: Activity
[18] = biological target: Tyrosine-protein kinase Fgr (Homo sapiens, UniProt P09769); assay: Inhibition of FGR (unknown origin)
PC-3 [19] = assay: Induction of apoptosis in human PC-3 cells assessed as necrotic cells at 0.1 uM by Annexin-V FITC staining based flow cytometry analysis (reference value: 0.059%); format: functional
[20] = biological target: Cyclin-dependent kinase 5 (Homo sapiens, UniProt Q00535); assay: Inhibition of CDK5 (unknown origin)
[21] = Toxicity in BALB/c mouse xenografted with human PC-3 cells assessed as change in liver morphology at 5 to 10 mg/kg, ip administered every 4 days for 20 days by H and E staining based inverted microscopic assay; format: organism-based; settings: in vivo, 480 h, dose 5-10 mg/kg, time 20 day
PC-3 [22] = assay: Antiproliferative activity against human PC-3 cells assessed as inhibition of cell growth at 0.1 to 12.5 uM incubated for 48 hrs by EdU incorporation based assay; format: functional; settings: dose 0.1-12.5 µM
PC-3 [23] = assay: Induction of cell cycle arrest in human PC-3 cells assessed as accumulation of cells at G2/M phase at 0.5 uM by flow cytometry analysis (reference value: 3.24%); format: functional
[24] = biological target: Ankyrin repeat and protein kinase domain-containing protein 1 (Homo sapiens, UniProt Q8NFD2); assay: Inhibition of ANKK1 (unknown origin)
Tubulin (Homo sapiens) [25] = biological target: T1, Tubulin (Homo sapiens); assay: Inhibition of tubulin polymerization in human PC-3 cells assessed as microtubule destruction at 2.5 to 12.5 uM incubated for 48 hrs by immunofluorescence assay; format: cell-based; settings: dose 2.5-12.5 µM
VCaP = assay: Cytotoxicity against human VCaP cells assessed as inhibition of cell viability incubated for 48 hrs by MTT assay; format: functional, cell-based
[26] = biological target: Cyclin-dependent kinase 9 (Homo sapiens, UniProt P50750); assay: Inhibition of CDK9 (unknown origin)
PC-3 [27] = assay: Induction of cell cycle arrest in human PC-3 cells assessed as decrease in cyclin-B1 expression at 0.5 to 12.5 uM incubated for 48 hrs by Western blotting analysis; format: functional, cell-based; settings: dose 0.5-12.5 µM
DU-145 = assay: Cytotoxicity against human DU-145 cells assessed as inhibition of cell viability incubated for 48 hrs by MTT assay; format: functional, cell-based
CDK6/cyclin D3 = CDK6/cyclin D3 (Homo sapiens, UniProt Q00534); assay: Inhibition of CDK6/Cyclin D3 (unknown origin); format: protein-complex assay
[28] = biological target: Tyrosine-protein kinase Lck (Homo sapiens, UniProt P06239); assay: Inhibition of LCK (unknown origin)
PC-3 [29] = assay: Induction of cell cycle arrest in human PC-3 cells assessed as accumulation of cells at G2/M phase at 0.1 uM by flow cytometry analysis (reference value: 3.24%); format: functional
PC-3 [30] = assay: Induction of apoptosis in human PC-3 cells assessed as early apoptotic cells at 0.1 uM by Annexin-V FITC staining based flow cytometry analysis (reference value: 1.51%); format: functional
[31] = biological target: RAC-alpha serine/threonine-protein kinase (Homo sapiens, UniProt P31749); assay: Inhibition of AKT1 (unknown origin)
PC-3 [32] = assay: Antitumor activity against human PC-3 cells xenografted in BALB/c nude mouse assessed as reduction in tumor weight at 5 to 10 mg/kg, ip administered every 4 days for 20 days; format: functional, organism-based; settings: dose 5-10 mg/kg, time 20.0 day
PC-3 [33] = assay: Antiangiogenesis activity in human PC-3 cells assessed as inhibition of tube formation incubated for 8 to 15 hrs by matrigel based inverted microscopic analysis; format: functional, cell-based; settings: dose 0.1-12.5 µM, time 8-15 hrs
PC-3 [34] = assay: Induction of cell cycle arrest in human PC-3 cells assessed as S phase cells at 0.1 uM by flow cytometry analysis (reference value: 2%); format: functional
[35] = biological target: Phosphatidylinositol 4,5-bisphosphate 3-kinase catalytic subunit alpha isoform (Homo sapiens, UniProt P42336); assay: Inhibition of PIK3CA (unknown origin)
Chain of Phosphatidylinositol 4,5-bisphosphate 3-kinase catalytic subunit alpha isoform (P42336 whole entry, canonical isoform): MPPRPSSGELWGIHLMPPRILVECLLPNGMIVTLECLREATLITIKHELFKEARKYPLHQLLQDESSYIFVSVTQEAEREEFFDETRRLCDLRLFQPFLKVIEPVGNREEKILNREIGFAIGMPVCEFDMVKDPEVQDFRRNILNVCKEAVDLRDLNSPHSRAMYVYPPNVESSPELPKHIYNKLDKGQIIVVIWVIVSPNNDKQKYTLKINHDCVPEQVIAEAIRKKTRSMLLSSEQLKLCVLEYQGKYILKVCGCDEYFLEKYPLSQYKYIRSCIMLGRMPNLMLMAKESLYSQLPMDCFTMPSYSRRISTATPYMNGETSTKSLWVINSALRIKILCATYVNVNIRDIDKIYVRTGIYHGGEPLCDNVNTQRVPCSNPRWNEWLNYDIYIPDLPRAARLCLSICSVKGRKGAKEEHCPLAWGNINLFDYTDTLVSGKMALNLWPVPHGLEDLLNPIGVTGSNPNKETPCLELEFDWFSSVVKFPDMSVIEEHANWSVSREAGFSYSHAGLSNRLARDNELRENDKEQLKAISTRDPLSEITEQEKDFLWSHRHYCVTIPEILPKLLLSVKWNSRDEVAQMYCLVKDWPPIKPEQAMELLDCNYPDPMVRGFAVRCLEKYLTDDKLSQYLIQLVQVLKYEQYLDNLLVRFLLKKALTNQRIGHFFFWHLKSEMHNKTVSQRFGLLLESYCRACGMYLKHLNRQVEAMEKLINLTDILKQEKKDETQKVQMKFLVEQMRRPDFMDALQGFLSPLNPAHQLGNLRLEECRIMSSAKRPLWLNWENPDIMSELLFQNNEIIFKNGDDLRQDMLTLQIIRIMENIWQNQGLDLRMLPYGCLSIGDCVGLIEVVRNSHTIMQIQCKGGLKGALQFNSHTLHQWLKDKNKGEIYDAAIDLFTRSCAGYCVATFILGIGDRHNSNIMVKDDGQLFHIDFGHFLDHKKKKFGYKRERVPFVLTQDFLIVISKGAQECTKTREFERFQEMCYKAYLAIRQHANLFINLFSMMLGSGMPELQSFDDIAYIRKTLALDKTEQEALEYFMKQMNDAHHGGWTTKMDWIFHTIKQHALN

Chain of RAC-alpha serine/threonine-protein kinase (P31749 whole entry): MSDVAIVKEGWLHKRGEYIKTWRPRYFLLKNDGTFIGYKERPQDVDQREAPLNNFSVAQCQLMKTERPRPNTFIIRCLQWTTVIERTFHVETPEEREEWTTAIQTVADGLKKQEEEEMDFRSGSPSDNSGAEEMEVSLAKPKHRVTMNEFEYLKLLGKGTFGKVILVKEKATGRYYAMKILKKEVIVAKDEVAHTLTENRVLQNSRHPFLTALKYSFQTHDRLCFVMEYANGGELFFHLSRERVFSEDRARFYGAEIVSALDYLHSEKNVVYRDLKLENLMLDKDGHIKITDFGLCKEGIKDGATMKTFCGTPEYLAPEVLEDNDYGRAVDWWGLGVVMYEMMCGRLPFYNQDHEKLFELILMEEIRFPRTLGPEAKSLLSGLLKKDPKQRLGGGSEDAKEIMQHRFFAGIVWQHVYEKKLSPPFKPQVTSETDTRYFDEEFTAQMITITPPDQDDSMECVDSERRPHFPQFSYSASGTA
Chain of Tyrosine-protein kinase Lck (P06239 whole entry): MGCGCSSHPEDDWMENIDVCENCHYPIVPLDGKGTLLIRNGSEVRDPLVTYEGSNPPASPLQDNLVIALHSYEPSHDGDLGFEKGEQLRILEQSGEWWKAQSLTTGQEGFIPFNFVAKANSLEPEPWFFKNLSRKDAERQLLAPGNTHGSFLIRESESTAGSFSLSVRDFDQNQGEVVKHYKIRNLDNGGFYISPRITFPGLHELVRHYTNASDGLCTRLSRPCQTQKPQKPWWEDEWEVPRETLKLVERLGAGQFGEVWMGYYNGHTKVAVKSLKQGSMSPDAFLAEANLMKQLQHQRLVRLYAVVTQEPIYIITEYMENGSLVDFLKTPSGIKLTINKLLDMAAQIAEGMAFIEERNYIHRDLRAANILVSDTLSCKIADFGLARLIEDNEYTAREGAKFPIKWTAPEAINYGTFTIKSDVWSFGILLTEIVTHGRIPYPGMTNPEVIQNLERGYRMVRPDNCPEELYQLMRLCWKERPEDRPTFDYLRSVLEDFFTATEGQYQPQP
Chain of CDK6/cyclin D3 (P30281 whole entry): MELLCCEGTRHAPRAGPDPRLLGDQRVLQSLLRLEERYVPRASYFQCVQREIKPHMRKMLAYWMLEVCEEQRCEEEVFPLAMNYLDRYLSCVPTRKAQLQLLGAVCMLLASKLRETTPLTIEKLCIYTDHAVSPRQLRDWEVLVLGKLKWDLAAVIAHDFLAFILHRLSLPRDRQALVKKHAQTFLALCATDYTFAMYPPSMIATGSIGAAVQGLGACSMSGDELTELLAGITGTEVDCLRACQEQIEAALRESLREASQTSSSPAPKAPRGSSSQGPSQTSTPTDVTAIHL
Chain of CDK6/cyclin D3 (Q00534 whole entry): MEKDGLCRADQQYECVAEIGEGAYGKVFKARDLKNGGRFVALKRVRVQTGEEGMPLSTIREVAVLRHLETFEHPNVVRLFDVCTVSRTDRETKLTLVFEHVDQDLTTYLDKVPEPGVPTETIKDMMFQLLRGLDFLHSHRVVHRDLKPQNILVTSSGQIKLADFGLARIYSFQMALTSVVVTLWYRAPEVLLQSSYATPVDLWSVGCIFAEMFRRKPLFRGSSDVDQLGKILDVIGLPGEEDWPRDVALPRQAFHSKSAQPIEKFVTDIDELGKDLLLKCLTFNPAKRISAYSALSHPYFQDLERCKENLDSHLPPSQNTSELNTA
Chain of Serine/threonine-protein kinase B-raf (P15056 whole entry): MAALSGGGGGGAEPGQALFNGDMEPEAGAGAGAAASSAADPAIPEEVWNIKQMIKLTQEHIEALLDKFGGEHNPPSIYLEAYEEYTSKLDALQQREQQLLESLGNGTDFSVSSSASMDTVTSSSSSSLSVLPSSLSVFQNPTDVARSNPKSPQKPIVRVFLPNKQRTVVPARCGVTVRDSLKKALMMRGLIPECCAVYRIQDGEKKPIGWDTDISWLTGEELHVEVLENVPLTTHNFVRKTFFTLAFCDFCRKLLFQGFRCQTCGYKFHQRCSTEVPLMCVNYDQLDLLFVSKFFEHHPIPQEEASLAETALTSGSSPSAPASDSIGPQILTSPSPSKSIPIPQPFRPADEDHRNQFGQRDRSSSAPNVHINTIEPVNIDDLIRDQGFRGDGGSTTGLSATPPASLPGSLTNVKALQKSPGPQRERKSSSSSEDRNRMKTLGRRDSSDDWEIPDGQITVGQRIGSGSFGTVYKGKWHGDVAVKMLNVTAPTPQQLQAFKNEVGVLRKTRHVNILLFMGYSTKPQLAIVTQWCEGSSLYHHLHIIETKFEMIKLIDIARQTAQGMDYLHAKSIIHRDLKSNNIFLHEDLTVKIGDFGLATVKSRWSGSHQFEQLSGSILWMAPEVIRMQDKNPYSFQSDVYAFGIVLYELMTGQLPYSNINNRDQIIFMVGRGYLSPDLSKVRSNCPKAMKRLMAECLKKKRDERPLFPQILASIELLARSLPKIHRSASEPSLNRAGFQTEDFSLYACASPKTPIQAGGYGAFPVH
Chain of Dual specificity protein kinase TTK (P33981 whole entry): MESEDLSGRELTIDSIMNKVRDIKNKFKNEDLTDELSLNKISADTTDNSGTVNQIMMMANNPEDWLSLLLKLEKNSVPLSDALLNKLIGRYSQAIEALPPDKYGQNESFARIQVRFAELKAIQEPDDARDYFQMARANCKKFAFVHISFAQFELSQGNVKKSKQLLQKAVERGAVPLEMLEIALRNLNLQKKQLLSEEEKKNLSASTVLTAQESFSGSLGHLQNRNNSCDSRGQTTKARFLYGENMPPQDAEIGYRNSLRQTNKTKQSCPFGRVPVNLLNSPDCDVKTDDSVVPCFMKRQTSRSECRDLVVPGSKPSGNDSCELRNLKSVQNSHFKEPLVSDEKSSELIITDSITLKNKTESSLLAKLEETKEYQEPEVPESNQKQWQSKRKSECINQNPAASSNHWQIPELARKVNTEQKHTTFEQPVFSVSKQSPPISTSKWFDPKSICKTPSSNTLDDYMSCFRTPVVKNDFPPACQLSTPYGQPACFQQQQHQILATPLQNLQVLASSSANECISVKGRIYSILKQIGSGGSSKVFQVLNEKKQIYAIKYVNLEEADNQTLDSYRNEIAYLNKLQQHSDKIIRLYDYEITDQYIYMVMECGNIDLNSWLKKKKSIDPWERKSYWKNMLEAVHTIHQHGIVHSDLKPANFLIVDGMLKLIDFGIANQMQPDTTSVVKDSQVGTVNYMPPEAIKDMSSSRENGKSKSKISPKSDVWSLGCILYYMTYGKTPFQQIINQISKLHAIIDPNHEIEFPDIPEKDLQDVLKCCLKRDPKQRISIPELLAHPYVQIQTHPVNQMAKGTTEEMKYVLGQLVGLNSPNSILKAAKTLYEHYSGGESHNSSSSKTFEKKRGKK
Chain of RAC-beta serine/threonine-protein kinase (P31751 whole entry): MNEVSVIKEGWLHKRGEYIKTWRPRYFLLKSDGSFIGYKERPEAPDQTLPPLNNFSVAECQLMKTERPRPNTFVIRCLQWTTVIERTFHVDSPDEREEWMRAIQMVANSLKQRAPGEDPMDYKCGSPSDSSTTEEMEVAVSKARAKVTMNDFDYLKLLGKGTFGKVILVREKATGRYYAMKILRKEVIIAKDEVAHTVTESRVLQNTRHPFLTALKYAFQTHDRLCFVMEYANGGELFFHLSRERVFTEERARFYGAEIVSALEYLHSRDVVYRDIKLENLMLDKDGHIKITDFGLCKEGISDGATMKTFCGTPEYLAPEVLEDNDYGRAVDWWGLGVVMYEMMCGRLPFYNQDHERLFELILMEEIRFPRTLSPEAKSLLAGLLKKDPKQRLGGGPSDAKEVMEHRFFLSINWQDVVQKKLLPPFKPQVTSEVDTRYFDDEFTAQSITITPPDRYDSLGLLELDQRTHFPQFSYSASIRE

With `COc1ccc(/C=C\c2cc(OC)c(OC)c(OC)c2)cc1NC(=O)CCC(=O)N[C@@H](CCCNC(=N)N)C(=O)O` the IC50 [1] was > 10 µM, the IC50 (Tubulin) was 0.71 µM and the IC50 [2] was > 10 µM. For the same compound, the inhibition (Tubulin (Homo sapiens) [3]) was “Dose-Dependent Effect”, the IC50 [4] was > 10 µM and the IC50 (PC-3 [5]) was 0.02 µM. The Activity (PC-3 [6]) was 51.13%, the IC50 [7] was > 10 µM and the Activity (PC-3 [8]) was 11.58%. For the same compound, the IC50 [9] was > 10 µM, the IC50 [10] was > 10 µM and the IC50 (Neuropilin-2) was > 10 µM. The Activity (PC-3 [11]) was 14.02%, the viability at 2.5 µM (PC-3 [12]) was 89.3% and the IC50 [13] was > 10 µM. The Activity (PC-3 [14]) was “Active”, the Activity (PC-3 [15]) was “Active” and the IC50 [16] was > 10 µM. For the same compound, the viability at 0.1 µM (PC-3 [17]) was 93.6%, the IC50 [18] was > 10 µM and the Activity (PC-3 [19]) was 0.064%. The IC50 [20] was > 10 µM, the Activity [21] was “Non-Toxic” and the Activity (PC-3 [22]) was “Active”. For the same compound, the Activity (PC-3 [23]) was 8.96%, the IC50 [24] was > 10 µM and the inhibition (Tubulin (Homo sapiens) [25]) was “Active”. The Activity (VCaP) was “Active”, the IC50 [26] was > 10 µM and the Activity (PC-3 [27]) was “Active”. The Activity (DU-145) was “Active”, the IC50 (CDK6/cyclin D3) was > 10 µM and the IC50 [28] was > 10 µM. The Activity (PC-3 [29]) was 4.48%, the Activity (PC-3 [30]) was 1.84% and the IC50 [31] was > 10 µM. The Activity (PC-3 [32]) was “Active”, the Activity (PC-3 [33]) was “Dose-Dependent Effect” and the Activity (PC-3 [34]) was 1.95%. The IC50 [35] was > 10 µM.
